Measured values published in PMC9915956, “Identification of Potent Zika Virus NS5 RNA-Dependent RNA Polymerase Inhibitors Combining Virtual Screening and Biological Assays” (International Journal of Molecular Sciences, 2023).
pEC50, pIC50: −log10 of the molar value. Like-named read-outs stand apart in the source and are kept apart here.

What was measured:
ZIKV NS5 RdRp [1] = biological target: T1, ZIKV NS5 RdRp (Zika virus, UniProt A0A024B7W1); assay: Fluorescence-based alkaline phosphatase-coupled polymerase assay, RdRp enzymatic inhibition; assay type: biochemical; conditions: compounds incubated with RdRp for 30 min; WT-RdRp; read-out: IC50 to inhibit RdRp activity
T1 sequence (A0A024B7W1 2786-3423): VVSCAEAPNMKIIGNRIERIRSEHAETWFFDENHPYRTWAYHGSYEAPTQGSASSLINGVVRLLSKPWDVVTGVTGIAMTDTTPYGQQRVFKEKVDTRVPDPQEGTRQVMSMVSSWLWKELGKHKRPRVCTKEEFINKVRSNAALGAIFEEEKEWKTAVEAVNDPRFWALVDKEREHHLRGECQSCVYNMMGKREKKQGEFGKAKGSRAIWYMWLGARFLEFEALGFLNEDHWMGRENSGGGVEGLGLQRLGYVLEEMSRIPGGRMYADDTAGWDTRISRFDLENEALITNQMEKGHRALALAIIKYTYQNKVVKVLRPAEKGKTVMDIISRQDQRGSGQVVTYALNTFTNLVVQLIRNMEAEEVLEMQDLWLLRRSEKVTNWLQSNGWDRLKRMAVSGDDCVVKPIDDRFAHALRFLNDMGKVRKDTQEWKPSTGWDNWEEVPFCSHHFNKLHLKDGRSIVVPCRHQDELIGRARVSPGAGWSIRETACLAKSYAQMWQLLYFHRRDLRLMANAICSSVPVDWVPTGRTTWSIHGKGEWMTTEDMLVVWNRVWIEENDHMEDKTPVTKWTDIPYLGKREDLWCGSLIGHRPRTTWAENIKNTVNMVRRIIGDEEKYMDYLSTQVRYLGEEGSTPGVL
Description: The activity of RdRp was measured by a fluorescence-based alkaline phosphatase-coupled polymerase assay established previously in our lab. Briefly, RdRp catalyzed the transfer of adenosine 5′-monophosphate from γ-(BBT)-ATP to the RNA chain, generating the byproduct BBTppi. Subsequently, BBTppi was hydrolyzed by alkaline phosphatase to fluorescent BBT (ex/em 430/560 nm).
The plasmid pET30a-RdRp, constructed in our laboratory, was transformed into E. coli Transetta (DE3) for RdRp expression and purified. The bacteria were grown in ZYM-5052 culture medium. RdRp with the His tag was loaded on a Ni^2+ HisTrap chelating column and then eluted in a buffer containing imidazole in the ÄKTA system. The purified proteins were verified by SDS-PAGE and Western blotting. RdRp activity was analyzed using a fluorescence-based alkaline phosphatase-coupled polymerase assay. The inhibitory effect of the compounds against RdRp was evaluated using the protocol developed in our laboratory.

in vitro = conditions: human
Description: (§1) The WST-8 assay was used to evaluate the cytotoxicity of the compounds. Huh-7 cells (1 × 10^4 cells/well) were seeded in a 96-well plate and different concentrations of compounds were added the next day. After a 24 h incubation, the supernatant was discarded and WST-8 reagent (1:10 diluted by DMEM) was added. The cell viability was assessed using a Microplate Reader (ELx808, Biotek, North Chesterfield, VA, USA) at 450 nm.

Huh-7 cells [2] = assay: WST-8 cell viability (cytotoxicity) assay; conditions: Huh-7 cells
Description: as §1

ZIKV NS5 RdRp [3] = biological target: T1, ZIKV NS5 RdRp; assay: SPR binding to immobilized RdRp; conditions: CM5 chip, 3.125–50 μM
Description: Thus, SPR assays were carried out. RdRp protein was immobilized on a CM5 sensor chip through amine coupling.
The SPR was carried out using BIAcore T200 (GE Healthcare, Uppsala, Sweden) at 25 °C. RdRp was diluted by 10 mM sodium acetate (pH 4.5) and then immobilized on a CM5 sensor chip using an NHS/EDC amine-coupling kit in 1× PBS-P running buffer. Different concentrations (3.125–50 μM) of compounds flowed through the sensor chip surface and the RUs was detected. The equilibrium dissociation constant (KD) was fitted using the BIAcore Evaluation Software.

ZIKV (SMGC-1) = assay: Anti-ZIKV activity by FACS of ZIKV E protein-positive cells; assay type: cell-based; conditions: Zika virus, read-out: EC50 anti-ZIKV activity (reduction of ZIKV E protein-positive cells)
Description: Huh-7 cells were infected with ZIKV (SMGC-1) and incubated with different concentrations of compounds. After 48 h, the cells were fixed and permeabilized, followed by staining with the FITC-anti-ZIKV E protein antibody. When detected by FACS, the FITC intensity in the given cell population reflected the ZIKV E protein-positive cells, indicting the cells infected with ZIKV.
Huh-7 cells were seeded into 24-well plates and infected with ZIKV (SMGC-1) at a multiplicity of infection (MOI) of 0.2. […] Chloroquine was used as a positive control. Cells were fixed and permeabilized for 20 min using a Fixation/Permeabilization Solution Kit. After washing, the cells were incubated with FITC-anti-ZIKV E protein antibody for 30 min. Then, ZIKV E protein-positive cells were detected in a FACS Analyzer and analyzed by FlowJo (TreeStar, Ashland, OR, USA). The EC50s of the compounds were calculated as the reduction ratio of ZIKV E protein-positive cells over the concentrations of the compounds.

dengue virus = conditions: by targeting OSBP; read-out: EC50 dengue virus replication; cited from earlier work
[4] = system: ZIKV sub-genomic replicon RNA; conditions: Hela cells, single concentration of 10 μM; cited from earlier work
Huh-7 cells [5] = system: Huh-7 cells; set-up: method as in PMID 19760134; conditions: ≤ 10 μM; cited from earlier work

CCCCCCOC(=O)NC(=N)c1ccc(NCc2nc3cc(C(=O)N(CCC(=O)OCC)c4ccccn4)ccc3n2C)cc1 [DAB, Dabigatran etexilate]
pIC50 (ZIKV NS5 RdRp [1]): 4.95

Cc1cc2c(C(C)C)c(O)c(O)c(C=O)c2c(O)c1-c1c(C)cc2c(C(C)C)c(O)c(O)c(C=O)c2c1O [GOS, Gossypol (acetic acid)]
CC50 at 24 h (in vitro): 7.79 µM
Cytotoxicity (in words) at 5 μM (Huh-7 cells [2]; WST-8, concentration of 5 μM): obvious cell toxicity

CCC(C)n1ncn(-c2ccc(N3CCN(c4ccc(OCC5COC(Cn6cncn6)(c6ccc(Cl)cc6Cl)O5)cc4)CC3)cc2)c1=O (stereo not shown) [ITR, Itraconazole]
CC50 at 24 h (in vitro): > 100 µM
Binding to RdRp by SPR (in words) (ZIKV NS5 RdRp [3]): almost no binding signals
pIC50 (ZIKV NS5 RdRp [1]): 5.74

CC[C@@H]([C@H](C)O)n1ncn(-c2ccc(N3CCN(c4ccc(OC[C@@H]5CO[C@@](Cn6cncn6)(c6ccc(F)cc6F)C5)cc4)CC3)cc2)c1=O [POS, Posaconazole]
pEC50 (ZIKV (SMGC-1); Huh-7 cells, ZIKV (SMGC-1) MOI 0.2, 48 h, FACS): 6.23
pEC50 (dengue virus): 5.39
CC50 at 24 h (in vitro; Huh-7 cells): 101 µM
Cytotoxicity (in words) at concentrations used in the anti-ZIKV assay (Huh-7 cells [2]; WST-8, 24 h, ≤ 6.4 μM): low
Effect on replication of ZIKV sub-genomic replicon RNA (in words) [4]: inhibit the replication

CCN(CC)CCCC(C)Nc1ccnc2cc(Cl)ccc12 (stereo not shown) [chloroquine, Chloroquine]
pEC50 (ZIKV (SMGC-1); Huh-7, 48 h): 5.55
Cytotoxicity to Huh-7 cells (in words) (Huh-7 cells [5]): no significant cytotoxicity
